Experimental data taken from patent US20170342046A1, “Fatty Acid Cysteine-Based Conjugates and Their Use in Treating Medical Disorders” (Catabasis Pharmaceuticals, Inc., priority 2016, published 2017).

Key:
[1] = tested on: C2C12 cells; experiment: Metabolic flux analysis: oxygen consumption rate (OCR) in Sea Horse XF96 under H2O2 stress; type: cell-based, mouse; conditions: for OCR upon the addition of FCCP / OCR corrected for antimycin A, mitochondrial bioenergetics: 1 mM H2O2 stress; for OCR over time, bioenergetics: treated 4 hours prior to 1 mM H2O2 stress
Method: C2C12 cells were cultured in Sea Horse XF96 plates according to the manufacturer's instructions and established protocols (see www.seahorsebio.com/products/instruments/selection.php; Yao et al., PROC. NATL. ACAD. SCI. USA (2009) 106, p. 14670-14675).
On the day of the assay, cells were incubated with the compounds of the invention for either 4 hours or 24 hours. The short 4 hour incubation with the test compounds allowed one to evaluate for improvement of mitochondrial bioenergetics under the “scavengers” conditions (i.e. conditions in which the test compounds could effectively scavenge the various reactive oxygen species). The longer 24 hour incubation with the test compounds allowed one to evaluate for improvement of mitochondrial bioenergetics under the Nrf2 conditions (i.e. conditions in which the test compounds could effectively activate the Nrf2 antioxidant pathway in order to cope with the various reactive oxygen species). For these assays, H2O2 was used as the source of reactive oxygen species. Under the general stress test, cells were then exposed to either 500 μM of H2O2 or 1 mM of H2O2 for 4 hours before the evaluation in the Sea Horse system. Baseline measurements of the oxygen consumption rate (OCR) were taken before sequential injections of the various mitochondrial inhibitors. Readings were taken after addition of the mitochondrial inhibitor before injection of the subsequent inhibitors. The mitochondrial inhibitors that were used included oligomycin (1 μM), FCCP (1 μM) and Antimycin A (1 μM). Oligomycin is a known inhibitor ATP synthase; addition of this reagent essentially stopped the synthesis of ATP. Antimycin A inhibits the electron transport chain in the mitochondria. FCCP essentially uncouples the mitochondria and allows one to measure the maximum respiration. Measurements of the OCR following the addition of FCCP allows one to assess the mitochondrial content. An improvement in the OCR following the addition of FCCP is a reflection of the improvement in bioenergetics, when the proper control groups were put in place. The OCR were automatically calculated and recorded by the Sea Horse XF96 software. Ten measurements were taken at each of the indicated time points. Statistical significance in different treatment groups were determined by an ANOVA, followed by a Newman-Keuls post hoc analysis. Compounds I-1, I-3 and 1-5 were evaluated for mitochondrial bioenergetics under various conditions.

[2] = tested on: transcription factor Nrf2; experiment: Assay to evaluate Nrf2 activity: mRNA of Nrf2 gene expression targets by RT-PCR (HPRT internal control); type: cell-based, mouse; conditions: for ΔmRNA/HPRT level for the NQO1 gene / ΔmRNA/HPRT level for the Gclc gene / ΔmRNA/HPRT level for the Gclm gene / ΔmRNA/HPRT level for the Gsta2 gene / ΔmRNA/HPRT level for the HMOX gene / ΔmRNA/HPRT level for the SRXN1 gene / ΔmRNA/HPRT level for the TXNRD1 gene: 24 hours, C2C12
Excerpt: The transcription factor Nrf2 and its repressor Keap1 regulate a large network of antioxidant genes. The mitochondrial inner membrane is particularly susceptible to damage by reactive oxygen species. Antioxidants can play a large role in preserving the mitochondrial inner membrane and maintaining the integrity of the respiratory chain. Holmstrom et al. (BIOLOGY OPEN (2013) 2, p. 761-770) have also shown that the Nrf2 pathway can potentially control the NADH substrates that are needed for mitochondrial respiration. Activation of the Nrf2 pathway is a way of improving the mitochondrial bioenergetics. The compounds of the invention were evaluated in an assay that was designed to assess the various antioxidant genes that could be regulated by the transcription factor Nrf2.
(§1) Briefly, mouse C2C12 cells were treated with the test compounds when about 70% of the myotubes were differentiated (Day 13). For the assay, cells were treated with the test compounds for 24 hours in low glucose, 0.5% FBS DMEM and 0.1% BSA final concentration. The total RNA was harvested and the relative mRNA expression levels were assessed via RT-PCR with Hypoxanthine phosphoribosyltransferase (“HPRT”) as the internal control. Data were represented as the mean ΔmRNA/HPRT, error bars represent the standard error of the mean (SEM). Significance was determined by student's t-test in comparison to control. The Nrf2 gene expression targets include:
Gclc—Glutamate-cysteine ligase catalytic subunit; Gclm—Glutamate-cysteine ligase modifier subunit;
Gsta2—Glutathione S-transferase A2;
HMOX1—Heme oxygenase 1; NQO1—NAD(P)H dehydrogenase (quinone) 1;
TXNRD1—Thioredoxin reductase 1.
Compound I-1 was evaluated in this assay for any upregulation in the seven Nrf2 gene expression targets listed above.

[3] = tested on: mouse C2C12 cells; experiment: Signs of toxicity seen in the Nrf2 activity assay; type: cell-based
Method: as §1
The ΔmRNA/HPRT level for NQO1 was selected for this experiment. […] With this covalent conjugate, the two key bioactive components were the N-acetylcysteine amide (NACA) and the omega-3 fatty acid. […] However, the effect was modest and a high concentration of NACA was needed. […] In order to obtain the same level of activity as 12 μM of the fatty acid cysteine conjugate I-1, a much higher concentration of 2,500 μM of NACA was needed. In this assay, the omega-3 fatty acid DHA began to show signs of toxicity at concentration of >25 μM. […] In terms of combination of the individual components, the combination of A (consisting of 312.5 μM of NACA and 3.12 μM of DHA) and the combination of B (consisting of 625 μM of NACA and 6.25 μM of DHA) were used.

[4] = tested on: transcription factor Nrf2; experiment: Assay to evaluate Nrf2 activity: mRNA of Nrf2 gene expression targets by RT-PCR (HPRT internal control); type: cell-based, mouse; conditions: synergy experiment
[5] = tested on: human epithelial cells from CF patients with homozygous ΔF508 mutation; conditions: 250 μM; cited from earlier work

catalase [reference compound]
OCR upon the addition of FCCP (FIG. 1A) ([1]; 5K U/mL catalase positive control, 4 hours, 500 μM H2O2 stress): significant restoration of the OCR upon the addition of FCCP
OCR upon the addition of FCCP ([1]; 5K U/mL catalase positive control, 4 hours): increase in the OCR upon the addition of FCCP; almost to the same level observed with the normal control groups

CC/C=C\C/C=C\C/C=C\C/C=C\C/C=C\C/C=C\CCC(=O)O [DHA, all-cis-4,7,10,13,16,19-docosahexaenoic acid, reference compound]
mRNA level of the NQO1 gene ([2]; tested at up to 12 μM, FIG. 6): did not observe any upregulation
concentration at which signs of toxicity began to show [3]: > 25 µM

CC(=O)N[C@@H](CS)C(=O)O [NAC, N-acetyl cysteine, reference compound]
OCR upon the addition of FCCP (FIG. 1A) ([1]; 5 mM NAC positive control, 4 hours, 500 μM H2O2 stress): significant restoration of the OCR upon the addition of FCCP
OCR upon the addition of FCCP ([1]; 5 mM NAC positive control, 4 hours): increase in the OCR upon the addition of FCCP; almost to the same level observed with the normal control groups

CC/C=C\C/C=C\C/C=C\C/C=C\C/C=C\C/C=C\CCC(=O)N[C@@H](CSSC(C)(C)CNC(=O)CC(O)C[N+](C)(C)C)C(N)=O (stereo partly drawn) [I-5, 4-((2-(((R)-3-amino-2-((4Z,7Z,10Z,13Z,16Z,19Z)-docosa-4,7,10,13,16,19-hexaenamido)-3-oxopropyl)disulfanyl)-2-methylpropyl)amino)-2-hydroxy-N,N,N-trimethyl-4-oxobutan-1-aminium]
OCR over time, bioenergetics ([1]; 1 μM and 10 μM): dose-dependent increase in bioenergetics
OCR corrected for antimycin A, mitochondrial bioenergetics ([1]; 10 μM, 4 hours): significant improvement in mitochondrial bioenergetics, essentially comparable to the two positive control arms, catalase or NAC

CC/C=C\C/C=C\C/C=C\C/C=C\C/C=C\C/C=C\CCC(=O)N[C@@H](CSSC(C)(C)CNC(=O)c1cccnc1)C(N)=O [I-1, N-(2-(((R)-3-amino-2-((4Z,7Z,10Z,13Z,16Z,19Z)-docosa-4,7,10,13,16,19-hexaenamido)-3-oxopropyl)disulfanyl)-2-methylpropyl)nicotinamide]
OCR over time, bioenergetics (FIG. 2A) ([1]; 1 μM and 10 μM, treated 24 hours prior to 500 μM H2O2 stress): significant improvement in bioenergetics, and the effect was dose-dependent
OCR upon the addition of FCCP (FIG. 1A) ([1]; 1 μM compound, treated 4 hours, then 500 μM H2O2 stress): significant restoration of the OCR upon the addition of FCCP, essentially to the same level observed with the normal control group and the positive control groups
OCR corrected for antimycin A, mitochondrial bioenergetics (FIG. 1B) ([1]; 1 μM or 10 μM, 4 hours, 500 μM H2O2 stress): restored mitochondrial bioenergetics to about the same level observed with normal cells
OCR corrected for antimycin A, bioenergetics (FIG. 2B) ([1]; 1 μM, 24 hours, 500 μM H2O2 stress): restored the bioenergetics to the same level observed with the normal control group
OCR upon the addition of FCCP (FIG. 1A) ([1]; 10 μM compound, treated 4 hours, then 500 μM H2O2 stress): significant restoration of the OCR upon the addition of FCCP, essentially to the same level observed with the normal control group and the positive control groups
OCR over time compared with control group and the two positive control groups (FIG. 2A) ([1]; 10 μM, 24 hours, 500 μM H2O2 stress): considerably higher
increase in the OCR compared with the two positive control groups (catalase or NAC) (FIG. 2B) ([1]; 10 μM, 24 hours, 500 μM H2O2 stress, corrected for antimycin A): ~4 fold
ΔmRNA/HPRT level for the NQO1 gene ([2]; 6.25 μM): an increase in the expression of mRNA
ΔmRNA/HPRT level for the Gclc gene ([2]; 12.5 μM): significant increase in the expression of mRNA
ΔmRNA/HPRT level for the Gclm gene ([2]; 12.5 μM): significant increase in the expression of mRNA
ΔmRNA/HPRT level for the Gsta2 gene ([2]; 12.5 μM): significant increase in the expression of mRNA
ΔmRNA/HPRT level for the HMOX gene ([2]; 12.5 μM): significant increase in the expression of mRNA
ΔmRNA/HPRT level for the NQO1 gene ([2]; 12.5 μM): two-fold increase
ΔmRNA/HPRT level for the SRXN1 gene ([2]; 12.5 μM): significant increase in the expression of mRNA
ΔmRNA/HPRT level for the TXNRD1 gene ([2]; 12.5 μM): significant increase in the expression of mRNA
ΔmRNA/HPRT level for the NQO1 gene ([2]; 1.56 to 3.12 μM): No significant increase
ΔmRNA/HPRT level for the Gclc gene ([2]; 1.56 to 6.25 μM): No significant increase
ΔmRNA/HPRT level for the Gclm gene ([2]; 1.56 to 6.25 μM): No significant increase
ΔmRNA/HPRT level for the Gsta2 gene ([2]; 1.56 to 6.25 μM): No significant increase
ΔmRNA/HPRT level for the HMOX gene ([2]; 1.56 to 6.25 μM): No significant increase
ΔmRNA/HPRT level for the SRXN1 gene ([2]; 1.56 to 6.25 μM): No significant increase
ΔmRNA/HPRT level for the TXNRD1 gene ([2]; 1.56 to 6.25 μM): No significant increase
Nrf2 pathway activation compared with individual components or their combination ([2]; NQO1 mRNA, FIG. 6): able to increase the Nrf2 pathway synergistically
concentration at which maximal response of NQO1 mRNA was observed ([2]; synergy experiment, FIG. 6): 12 µM
expression of mRNA of NQO1, dose response (FIG. 6) [4]: dose-dependent increase in the expression of mRNA of NQO1

CC/C=C\C/C=C\C/C=C\C/C=C\C/C=C\C/C=C\CCC(=O)N[C@@H](CSSC(C)(C)CNC(=O)c1cccnc1)C(=O)O [I-3, N-((4Z,7Z,10Z,13Z,16Z,19Z)-docosa-4,7,10,13,16,19-hexaenoyl)-S-((2-methyl-1-(nicotinamido)propan-2-yl)thio)-L-cysteine]
OCR over time, bioenergetics ([1]; 1 μM and 10 μM): dose-dependent increase in bioenergetics
OCR corrected for antimycin A, mitochondrial bioenergetics ([1]; 10 μM, 4 hours): significant improvement in mitochondrial bioenergetics, essentially comparable to the positive control NAC

NCCSSCCN [cystamine]
CFTR at the plasma membrane [5]: restoration of the CFTR to the plasma membrane
autophagy [5]: up-regulation of autophagy
